The text below walks through data of patent publication US20060128792A1, “Deguelin as a chemopreventive agent for lung cancer” (priority 2002, published 2006).

Like-named read-outs stand apart in the source and are kept apart here.

Series [1] has as its system premalignant (1799, 1198) and malignant (1170) HBE cell lines. As to the kind of experiment: MTT assay, growth of premalignant and malignant HBE cell lines. The class given is cell-based. Conditions: premalignant and malignant HBE cells; unpublished data. The text has this: Cells and Cell Cultures. […] Tumors developed 6 months later. […] (Klein-Szanto et al., 1992).
A general note: Formazan colour is commonly taken as a measure of viable cells.

The subject of series [2] is NHBE. As to the kind of experiment: MTT assay, growth inhibition / viability of normal HBE cells.
Method: Cells and Cell Cultures. […] Normal HBE (NHBE) cells were purchased from Clontech (Palo Alto, Calif.). […] Cells were grown on tissue culture plasticware (Falcon; Bector, Dickinson, Bedford, Mass.) at 37° C. in a humidified atmosphere with 5% C02. For the analyses of growth inhibition, cell cycle, and induction of apoptosis by deguelin, NHBE cells, HBE cell lines, and squamous HBE cells were cultured in KSFM (Life Technologies) containing 2 μg/ml of EGF and bovine pitutary extract.
Cell Treatment with Deguelin and Determination of Growth Inhibition. To measure the effects of deguelin on cell proliferation, NHBE, 1799 cells, 1198 cells, and 1170 cells were transferred onto 96-well plates at densities ranging from 2×10^3 to 4×10^3 cells/well. After 1 day, the cells were changed to the fresh medium containing various concentrations of deguelin dissolved in DMSO (final concentration, 0.1%). Control cultures received 0.1% dimethyl sulfoxide (DMSO) as did the deguelin-treated cultures. […] After 1 day of infection, cells were treated with 10^−7 M or 10^−6 M of deguelin, or 0.1% DMSO as a control, and then incubated for 2 days. […] Six replicate wells were used for each analysis.
The test system of series [3] is genes controlled by the TPA response element (TRE). The conditions noted are these: cited from earlier work.
The test system of series [4] is ovarian, breast and lung cancers. The conditions noted are these: cited from earlier work.

On to `O=c1cc(N2CCOCC2)oc2c(-c3ccccc3)cccc12` [LY294002, reference compound], for which the “concentration required to induce detectable cell growth inhibition” value in series [1] was “more than 10 μM”. Also, the “cytotoxicity on NHBE cells” value in series [2] is “significant cytotoxicity”.

As for `N#CC(=C(N)Sc1ccccc1N)C(C#N)=C(N)Sc1ccccc1N` [U0126, 1,4diamino-2,3-dicyano-1,4 bis[2-aminophenylthio]butadiene], the “concentration inhibiting PMA-induction of TRE-controlled genes” value in series [3] was 1 to 2 µM.

For `CC(=O)O[C@H]1C(=O)[C@@]2(C)[C@H]([C@H](OC(=O)c3ccccc3)[C@]3(O)C[C@H](OC(=O)[C@H](O)[C@@H](NC(=O)c4ccccc4)c4ccccc4)C(C)=C1C3(C)C)[C@]1(OC(C)=O)CO[C@@H]1C[C@@H]2O` [taxol, Paclitaxel], the figures for the response rate in series [4] (advanced drug refractory ovarian cancer), in series [4] (previously treated metastatic breast cancer) and in series [4] (various lung cancers) were 19-36%, 27-62% and 21-37%, respectively.
